{"source": "PubChem BioAssay AID2060360", "about": "(Molecular Pharmacology Branch, DTP, NCI, 2025);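 also: spheroids exposed to drugs for seven days before readout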", "system": "282377-053-R-J1-PDC tumor spheroids, viability", "test": "Anticancer human tumor 282377-053-R-J1-PDC patient-derived colon adenocarcinoma cell line growth inhibition [TAK]", "details": "spheroids with HUVEC and MSC; for IC50: curve of first compound; for viability, T/C: stronger effect = lower value", "source_text": "Combinatorial screen of targeted agents with TAK-243 and ipatasertib in multi-cell type tumor spheroids\nA high-throughput screen of multi-cell type tumor spheroids was designed to identify active combinations of targeted small molecules and TAK-243 or ipatasertib. Complex spheroids include a stromal component modeled by human endothelial cells (HUVEC) and fibroblasts modeled by human mesenchymal stem cells (MSCs). The concentration ranges selected for each drug and investigational agent were based upon clinically achievable concentrations if the clinical Cmax of the agent was known.\nCompounds. The drugs and investigational agents: TAK-243 (785004), ipatasertib (767898), everolimus (733504), selumetinib (741078), bortezomib (756655), trametinib (758246), ixazomib (758254), vemurafenib (761431), dabrafenib (764134), sapanisertib (764658), alpelisib (765974), and copanlisib (816437), were obtained from the National Cancer Institute (NCI) Developmental Therapeutics Program Chemical Repository. The FDA-approved anticancer drug set is available from the NCI Developmental Therapeutics Program. […] The stock solutions were prepared in dimethyl sulfoxide (DMSO, Sigma-Aldrich, St. Louis, MO, cat. D2650) at 800-fold the tested concentration and stored at -70 degrees C prior to their use. All drugs and investigational agents were tested over a range starting from a high concentration at or near the clinical Cmax and decreasing in half-log increments. If the clinical Cmax for an agent had not been determined, the highest concentration tested was 10 microM.\nNCI60 Cell Culture. NCI60 cell lines were obtained from the NCI Developmental Therapeutics Program Tumor Repository. For each lot of cells, the Repository performed Applied Biosystems AmpFLSTR Identifiler testing with PCR amplification to confirm consistency with the published Identifier STR profile for each cell line. Cells were kept in continuous culture for no more than 20 passages. The optimal seeding densities for each of the cell lines at each time point assessed were determined prior to performing the concentration response studies. Briefly, the NCI60 human tumor lines were grown as monolayers in RPMI 1640 medium supplemented with 10% FBS and 2 mmol/L L-glutamine.\nAn additional 2 lines were from the NCI60 cell line panel including melanomas, MALME-3M and SK-MEL-2. Pooled donor human umbilical vein endothelial cells (HUVEC, Lonza, cat. CC-2519) and human mesenchymal stem cells (hMSC, Lonza, cat. PT-2501) were purchased from Lonza (Walkersville, MD).\nPDMR cell lines were grown in complete medium (DC medium): Dulbecco's modified Eagle's medium (DMEM)/F12 supplemented with 5% fetal bovine serum (FBS), 2 mM L-glutamine, 100 U/mL penicillin and 100 µg/ml streptomycin, 0.4 µg/ml hydrocortisone, 10 ng/ml epidermal growth factor (EGF) recombinant human protein, 24 µg/mL adenine, and 0.1 mg/mL primocin. During culture from frozen stock vials, PDMR cells were cultured in the same medium containing 10 µM Y-27632 (see Table 3). The PDCs were cultured in complete DMEM/F12 media without 10 microM Y-27632 dihydrochloride for at least two passages prior to the screen. The pooled donor HUVEC and hMSC were cultured in endothelial cell growth medium 2 (PromoCell, Heidelberg, Germany, cat. C-22011) and mesenchymal stem cell growth medium 2 (PromoCell, cat. C-28009), respectively. For all experiments, HUVEC and hMSC were used at passages </=5.\nFor the pre-screen, cell seeding densities were determined from a titration spanning the range from 5,000 to 313 cells per well. The mct-spheroids including 60% malignant cells, 25% HUVEC and 15% MSC dispensed as a mixture into U-bottom Ultra-Low Attachment 384-well plates (Corning, NY)\nHigh-throughput Drug Combination Screening.\nPrior to their inoculation into 384-well plates, malignant cells, HUVEC, and hMSC were removed from T flasks using TrypLE express (Thermo Fisher Scientific, cat. 12605036) and harvested by centrifugation for 5 min at 233 x g. […]"}
{"smiles": "CC(=O)Nc1cccc(-n2c(=O)n(C3CC3)c(=O)c3c(Nc4ccc(I)cc4F)n(C)c(=O)c(C)c32)c1", "note": "+ CC(C)NCC(C(=O)N1CCN(c2ncnc3c2C(C)CC3O)CC1)c1ccc(Cl)cc1", "values": [{"measurement": "IC50", "setting": "second compound 0.3 µM", "value": 2.49, "unit": "nM"}, {"measurement": "IC50", "setting": "second compound 0.949 µM", "value": 1.95, "unit": "nM"}, {"measurement": "IC50", "setting": "second compound 3 µM", "value": 1.44, "unit": "nM"}, {"measurement": "IC50", "setting": "second compound 9.49 µM", "value": 1.54, "unit": "nM"}, {"measurement": "IC50", "setting": "second compound 30 µM", "value": 0.516, "unit": "nM"}, {"measurement": "viability, T/C", "setting": "second compound 0.3 µM, first compound 94.9 pM", "value": 96, "unit": "%"}, {"measurement": "viability, T/C", "setting": "second compound 0.3 µM, first compound 0.0003 µM", "value": 79, "unit": "%"}, {"measurement": "viability, T/C", "setting": "second compound 0.3 µM, first compound 0.000949 µM", "value": 67.5, "unit": "%"}, {"measurement": "viability, T/C", "setting": "second compound 0.3 µM, first compound 0.003 µM", "value": 49.2, "unit": "%"}, {"measurement": "viability, T/C", "setting": "second compound 0.3 µM, first compound 0.00949 µM", "value": 24.9, "unit": "%"}, {"measurement": "viability, T/C", "setting": "second compound 0.3 µM, first compound 0.03 µM", "value": 12.4, "unit": "%"}, {"measurement": "viability, T/C", "setting": "second compound 0.949 µM, first compound 94.9 pM", "value": 86.8, "unit": "%"}, {"measurement": "viability, T/C", "setting": "second compound 0.949 µM, first compound 0.0003 µM", "value": 76.9, "unit": "%"}, {"measurement": "viability, T/C", "setting": "second compound 0.949 µM, first compound 0.000949 µM", "value": 55.2, "unit": "%"}, {"measurement": "viability, T/C", "setting": "second compound 0.949 µM, first compound 0.003 µM", "value": 49.3, "unit": "%"}, {"measurement": "viability, T/C", "setting": "second compound 0.949 µM, first compound 0.00949 µM", "value": 24.8, "unit": "%"}, {"measurement": "viability, T/C", "setting": "second compound 0.949 µM, first compound 0.03 µM", "value": 11.8, "unit": "%"}, {"measurement": "viability, T/C", "setting": "second compound 3 µM, first compound 94.9 pM", "value": 78.2, "unit": "%"}, {"measurement": "viability, T/C", "setting": "second compound 3 µM, first compound 0.0003 µM", "value": 70.6, "unit": "%"}, {"measurement": "viability, T/C", "setting": "second compound 3 µM, first compound 0.000949 µM", "value": 53.6, "unit": "%"}, {"measurement": "viability, T/C", "setting": "second compound 3 µM, first compound 0.003 µM", "value": 40.8, "unit": "%"}, {"measurement": "viability, T/C", "setting": "second compound 3 µM, first compound 0.00949 µM", "value": 26.7, "unit": "%"}, {"measurement": "viability, T/C", "setting": "second compound 3 µM, first compound 0.03 µM", "value": 13.7, "unit": "%"}, {"measurement": "viability, T/C", "setting": "second compound 9.49 µM, first compound 94.9 pM", "value": 75.4, "unit": "%"}, {"measurement": "viability, T/C", "setting": "second compound 9.49 µM, first compound 0.0003 µM", "value": 71.7, "unit": "%"}, {"measurement": "viability, T/C", "setting": "second compound 9.49 µM, first compound 0.000949 µM", "value": 56.8, "unit": "%"}, {"measurement": "viability, T/C", "setting": "second compound 9.49 µM, first compound 0.003 µM", "value": 38.4, "unit": "%"}, {"measurement": "viability, T/C", "setting": "second compound 9.49 µM, first compound 0.00949 µM", "value": 25.9, "unit": "%"}, {"measurement": "viability, T/C", "setting": "second compound 9.49 µM, first compound 0.03 µM", "value": 12.4, "unit": "%"}, {"measurement": "viability, T/C", "setting": "second compound 30 µM, first compound 94.9 pM", "value": 64, "unit": "%"}, {"measurement": "viability, T/C", "setting": "second compound 30 µM, first compound 0.0003 µM", "value": 58.6, "unit": "%"}, {"measurement": "viability, T/C", "setting": "second compound 30 µM, first compound 0.000949 µM", "value": 41.6, "unit": "%"}, {"measurement": "viability, T/C", "setting": "second compound 30 µM, first compound 0.003 µM", "value": 27, "unit": "%"}, {"measurement": "viability, T/C", "setting": "second compound 30 µM, first compound 0.00949 µM", "value": 22.9, "unit": "%"}, {"measurement": "viability, T/C", "setting": "second compound 30 µM, first compound 0.03 µM", "value": 12.3, "unit": "%"}]}
{"smiles": "CC(C)CC(NC(=O)C(Cc1ccccc1)NC(=O)c1cnccn1)B(O)O", "note": "(stereo not given) + CC(C)NCC(C(=O)N1CCN(c2ncnc3c2C(C)CC3O)CC1)c1ccc(Cl)cc1", "values": [{"measurement": "IC50", "setting": "second compound 0.3 µM", "value": "> 10", "unit": "nM"}, {"measurement": "IC50", "setting": "second compound 0.949 µM", "value": "> 10", "unit": "nM"}, {"measurement": "IC50", "setting": "second compound 3 µM", "value": "> 10", "unit": "nM"}, {"measurement": "IC50", "setting": "second compound 9.49 µM", "value": 7.5, "unit": "nM"}, {"measurement": "IC50", "setting": "second compound 30 µM", "value": 7.96, "unit": "nM"}, {"measurement": "viability, T/C", "setting": "second compound 0.3 µM, first compound 31.6 pM", "value": 105, "unit": "%"}, {"measurement": "viability, T/C", "setting": "second compound 0.3 µM, first compound 0.0001 µM", "value": 96, "unit": "%"}, {"measurement": "viability, T/C", "setting": "second compound 0.3 µM, first compound 0.000316 µM", "value": 97.5, "unit": "%"}, {"measurement": "viability, T/C", "setting": "second compound 0.3 µM, first compound 0.001 µM", "value": 98.3, "unit": "%"}, {"measurement": "viability, T/C", "setting": "second compound 0.3 µM, first compound 0.00316 µM", "value": 98.5, "unit": "%"}, {"measurement": "viability, T/C", "setting": "second compound 0.3 µM, first compound 0.01 µM", "value": 80.8, "unit": "%"}, {"measurement": "viability, T/C", "setting": "second compound 0.949 µM, first compound 31.6 pM", "value": 93, "unit": "%"}, {"measurement": "viability, T/C", "setting": "second compound 0.949 µM, first compound 0.0001 µM", "value": 90.7, "unit": "%"}, {"measurement": "viability, T/C", "setting": "second compound 0.949 µM, first compound 0.000316 µM", "value": 92.5, "unit": "%"}, {"measurement": "viability, T/C", "setting": "second compound 0.949 µM, first compound 0.001 µM", "value": 101, "unit": "%"}, {"measurement": "viability, T/C", "setting": "second compound 0.949 µM, first compound 0.00316 µM", "value": 93.1, "unit": "%"}, {"measurement": "viability, T/C", "setting": "second compound 0.949 µM, first compound 0.01 µM", "value": 56.5, "unit": "%"}, {"measurement": "viability, T/C", "setting": "second compound 3 µM, first compound 31.6 pM", "value": 90.2, "unit": "%"}, {"measurement": "viability, T/C", "setting": "second compound 3 µM, first compound 0.0001 µM", "value": 84.2, "unit": "%"}, {"measurement": "viability, T/C", "setting": "second compound 3 µM, first compound 0.000316 µM", "value": 87.7, "unit": "%"}, {"measurement": "viability, T/C", "setting": "second compound 3 µM, first compound 0.001 µM", "value": 86.6, "unit": "%"}, {"measurement": "viability, T/C", "setting": "second compound 3 µM, first compound 0.00316 µM", "value": 78.8, "unit": "%"}, {"measurement": "viability, T/C", "setting": "second compound 3 µM, first compound 0.01 µM", "value": 51.1, "unit": "%"}, {"measurement": "viability, T/C", "setting": "second compound 9.49 µM, first compound 31.6 pM", "value": 83.2, "unit": "%"}, {"measurement": "viability, T/C", "setting": "second compound 9.49 µM, first compound 0.0001 µM", "value": 83.7, "unit": "%"}, {"measurement": "viability, T/C", "setting": "second compound 9.49 µM, first compound 0.000316 µM", "value": 83.8, "unit": "%"}, {"measurement": "viability, T/C", "setting": "second compound 9.49 µM, first compound 0.001 µM", "value": 79.9, "unit": "%"}, {"measurement": "viability, T/C", "setting": "second compound 9.49 µM, first compound 0.00316 µM", "value": 78.6, "unit": "%"}, {"measurement": "viability, T/C", "setting": "second compound 9.49 µM, first compound 0.01 µM", "value": 40.6, "unit": "%"}, {"measurement": "viability, T/C", "setting": "second compound 30 µM, first compound 31.6 pM", "value": 69.2, "unit": "%"}, {"measurement": "viability, T/C", "setting": "second compound 30 µM, first compound 0.0001 µM", "value": 71.3, "unit": "%"}, {"measurement": "viability, T/C", "setting": "second compound 30 µM, first compound 0.000316 µM", "value": 72.7, "unit": "%"}, {"measurement": "viability, T/C", "setting": "second compound 30 µM, first compound 0.001 µM", "value": 68.5, "unit": "%"}, {"measurement": "viability, T/C", "setting": "second compound 30 µM, first compound 0.00316 µM", "value": 65.3, "unit": "%"}, {"measurement": "viability, T/C", "setting": "second compound 30 µM, first compound 0.01 µM", "value": 46.2, "unit": "%"}]}
